{
  "source": "patent US9822373B2",
  "about": "“Mutant cells for protein secretion and lignocellulose degradation” (The Regents of the University of California, priority 2011, dated 2017)",
  "key": {"[1]": {"tested_on": "cbh-1", "assay": "mRNA sequencing (RNA-Seq), transcript abundance of cbh-1", "format": "cell-based, Neurospora crassa", "conditions": "Δ3βG; 4 hours after transfer to 0.2% cellobiose", "procedure": "(§1) Conidia from strains were inoculated at an OD595 equal to 0.05 in 50 ml Vogel's salts (45) with 2% w/v sucrose in a 250 ml Erlenmeyer flask and grown under constant light at 200 rpm for 16 hours. Biomass was then spun at 4200 rpm for 10 minutes and washed in Vogel's salts twice to remove any excess sucrose. Biomass was then added to a new flask containing 50 ml Vogel's salts supplemented with 1% w/v sucrose, 0.2% w/v cellobiose (Sigma) or 1% w/v Avicel® PH 101 (Sigma). Cultures were induced for 4 hrs under constant light at 200 rpm. The culture biomass was then harvested by filtration over a Whatman glass microfiber filter (GF/F) on a Buchner funnel and washed with 50 ml Vogel's salts. The biomass was flash frozen in liquid nitrogen and stored at −80° C. Three independent biological duplicates (flasks) were evaluated for each time point.\n(§2) Total RNA from frozen samples was isolated using Zirconia/Silica beads (0.5 mm diameter; Biospec) and a Mini-Beadbeater-96 (Biospec) with 1 mL TRIzol reagent (Invitrogen) according to the manufacturer's instructions. […]\n(§3) mRNA sequencing was performed using an Illumina kit (RS-100-0801) with isolated RNA. The final cDNA library was quantified by an Agilent bioanalyzer 2000 and sequenced using an Illumina Genome Analyzer-II using standard Illumina operating procedures. […]"}, "[2]": {"tested_on": "NCU07760 (gh61-2)", "assay": "mRNA sequencing (RNA-Seq), transcript abundance of gh61-2", "format": "cell-based, Neurospora crassa", "conditions": "Δ3βG mutant; 4 hours after transfer to 0.2% cellobiose", "procedure": "as §1, §2, §3"}, "[3]": {"tested_on": "NCU05924 (endoxylanase, gh10-1)", "assay": "mRNA sequencing (RNA-Seq), transcript abundance of gh10-1", "format": "cell-based, Neurospora crassa", "conditions": "Δ3βG mutant; 4 hours after transfer to 0.2% cellobiose", "procedure": "as §1, §2, §3"}, "[4]": {"tested_on": "Exoglucanase (Cellobiohydrolase I)", "assay": "MuLac (4-Methylumbelliferyl β-D-cellobioside) exoglucanase activity of culture supernatant", "format": "cell-based, Neurospora crassa", "conditions": "for MuLac activity: triple β-glucosidase deletion", "procedure": "Strains were inoculated at an OD595 equal to 0.05 in 100 ml Vogel's salts with 1% (wt/vol) sucrose in a 250 ml Erlenmeyer flask and grown under constant light at 200 rpm for 24 hours. Cultures were then induced with 2% sucrose, 2% cellobiose, 1% sucrose/1% cellobiose, or 1% sucrose/1% Avicel®. Cultures continued to grow under constant light at 200 rpm for 5 days with supernatant collected at 1, 2, 3, 4 and 5 day. The collected supernatant was filtered through a 0.2 μm PES filter to remove biomass before being stored at −20° C. until all samples were collected. To visualize the secreted proteins, 15 μl of unconcentrated supernatant was run on a Criterion 10% Tris-HCL polyacrylamide gel and stained with Thermo Scientific GelCode Blue Stain Reagent.\nExoglucanase (Cellobiohydrolase I) activity was measured using a 4-Methylumbelliferyl β-D-cellobioside (MuLac) assay. This assay mainly measures the activity of CBH-1 and activity is expressed as the change in fluorescence over time resulting in the slope of a best-fit line as an indication of enzyme activity. Prior to performing this assay, any excess sugars in the culture supernatant were removed by passing the supernatant over a 5,000 Dalton concentrator (sartorius stedim Vivaspin 500). Retained proteins were washed twice with 50 mM sodium acetate pH 5 and diluted to 2 μg/μl to assure that the assay remained in the linear range. […] The assay was performed in a Beckman Coulter Paradigm plate reader set at 40° C. with excitation/emission wavelengths of 360/465 nm with readings every 30 seconds for 10 minutes. The slope of the best-fit line represents the MuLac activity for an individual culture supernatant. The MuLac activity is normalized to the initial dilution required to obtain a 2 μg/μl concentration in order to represent the undiluted activity. The activity of recombinant cellobiohydrolase-1 was used as a standard and data is presented as a percentage of the wild type activity on Avicel® after 4 days."}, "[5]": {"tested_on": "Neurospora crassa", "assay": "Avicel hydrolysis assay with shake flask culture supernatants", "format": "cell-based", "procedure": "Cultures were grown in 1% sucrose for 24 hours followed by the addition of 2% sucrose or 0.2% cellobiose. Supernatant was harvested after 24 (WT, Δ3βG and Δ3βGΔcre) or 72 hours (Δ3βG). The WT Avicel® culture was grown for 5 days on 2% Avicel®, Δ3βG was grown in 1% sucrose for 24 hours followed by 48 hours in 1% Avicel® and Δ3βGΔcre was grown in 1% sucrose for 24 hours followed by 24 hours in 1% Avicel®.\nTotal Avicelase activity was conducted in 250 mL media bottles incubated at 50° C. on a orbital shaker at 200 rpm. Each bottle contained 1% cellulose (Avicel®) and 50 mM (pH 5.0) sodium acetate in a working volume of 50 mL. Tetracycline (10 μg/mL) was added to prevent microbial contamination. Bioreactor culture broth samples were buffer exchanged using a 10 kDa MWCO centrifugal filter to remove any soluble sugars prior to initiating hydrolysis experiments. After pre-incubating the hydrolysis mixture to 50° C., enzyme was added (1 mL filtered culture broth). Samples were taken every 4 hours for the first 12 hours and then every 12 hours thereafter for a total of 48 hours. Hydrolysis experiments were performed in triplicate.\nSucrose, fructose, glucose and cellobiose were measured on a DIONEX ICS-3000 HPLC (Dionex Corp., Sunnyvale, Calif.) using a CarboPac PA20 Analytical Column (3×150 mm) and a CarboPac PA20 guard column (3×30 mm) at 30° C. Following injection of 25 μl of diluted samples, elution was performed with 100 mM KOH (isocratic) at 0.4 ml/min. Sugars were detected using PAD, Four-Potential Carbohydrate Waveform and Peaks were analyzed using the Chromeleon software package."}},
  "data": [
    {"smiles": "O=C[C@H](O)[C@@H](O)[C@H](O[C@@H]1O[C@H](CO)[C@@H](O)[C@H](O)[C@H]1O)[C@H](O)CO", "note": "[cellobiose]", "values": [
      {"measurement": "FPKM for cbh-1", "setting": "[1]", "result": "130,865 FPKM"},
      {"measurement": "FPKM of NCU07760 (gh61-2)", "setting": "[2]", "result": 538, "unit": "FPKM"},
      {"measurement": "FPKMs of NCU05924 (endoxylanase, gh10-1)", "setting": "[3]", "result": "10,000 FPKMs"},
      {"measurement": "MuLac activity", "setting": "[4]; 4 days", "result": 4.84, "unit": "μg CBHI equivalent"},
      {"measurement": "MuLac activity", "setting": "[4]; two days", "result": 1.4, "unit": "μg recombinant CBHI"},
      {"measurement": "MuLac activity (CBHI equivalent produced)", "setting": "[4]; triple β-glucosidase/Δcre-1 deletion strain, four days", "result": "more than 11 μg CBHI equivalent"},
      {"measurement": "activity towards MuLac", "setting": "[4]; Δcre-1, time not stated", "result": 0.8, "unit": "µg"},
      {"measurement": "hydrolysis of crystalline cellulose by culture supernatant", "setting": "[5]; WT cultures grown on or induced with the substance", "result": "did not"},
      {"measurement": "hydrolysis of crystalline cellulose by culture supernatant", "setting": "[5]; Δ3βG cultures grown on or induced with the substance", "result": "hydrolyzed crystalline cellulose"},
      {"measurement": "hydrolysis of crystalline cellulose by culture supernatant", "setting": "[5]; Δ3βGΔcre cultures grown on or induced with the substance", "result": "hydrolyzed crystalline cellulose"}
    ]}
  ]
}
